The source of these data is publication PMC9822270, “Modulation Effect on Tubulin Polymerization, Cytotoxicity and Antioxidant Activity of 1H-Benzimidazole-2-Yl Hydrazones” (Molecules, 2022).

Assay [1] can be described thus: Hydroxyl radical averting capacity (HORAC). As to conditions: gallic acid equivalents; sample final concentration 2.5 μM; Co(II)/H2O2, fluorescein; mean. The procedure:
HORAC values of various phenolic compounds are related to their metal chelating properties and molecules that can chelate metals show significant HORAC values. According to the HORAC assays, the antioxidant capacity ranged between 0.50 and 3.03 GAE. […] To our knowledge, the current study is the first one to report ORAC and HORAC activities of 1H-benzimidazole-2-yl hydrazones.
HORAC was performed according to Ou et al. and fluorescein was used as the fluorescent probe. Hydrogen peroxide solution of 0.55 M was prepared in distilled water. 4.6 mM Co(II) was prepared as follows: 15.7 mg of CoF2.4H2O and 20 mg of picolinic acid were dissolved in 20 mL of distilled water. Fluorescein—170 µL (60 nM, final concentration) and 10 µL of sample were incubated at 37 °C for 10 min directly in the FLUOstar plate reader. […] The initial fluorescence was measured after which the readings were taken every minute after shaking. […] The AUC were calculated as they were for the ORAC assay. One HORAC unit was assigned to the net protection area provided by 1 µM gallic acid (final concentration −0.05 μM) and the activity of the sample was expressed as Gallic Acid Equivalents (GAE).
ORAC and HORAC analyses were carried out on a FLUOstar Galaxy plate reader (BMG Labtechnology, Offenburg, Germany) with excitation wavelength = 485 nm and emission wavelength = 520 nm.

The next assay deals with T1, porcine brain tubulin (Sus scrofa, UniProt P02550+P02554).
T1 construct: The standard reaction mixture contains 95 μL of 4 mg.mL^−1 porcine brain tubulin; purchased Cytoskeleton, USA BK004P; host or cells: porcine brain (tissue-purified)
Put plainly: In vitro tubulin polymerization assay (turbidity at 340 nm). As to conditions: 10 µM compound; 37 °C, 90 min, turbidity 340 nm. It is filed as biochemical. The procedure: The ability of the compounds to modulate the polymerization of tubulin was evaluated in vitro on purified porcine tubulin by spectrophotometric monitoring at 340 nm and compared to those of nocodazole and paclitaxel as reference compounds. Nocodazole which inhibits the assembly of tubulin was used as a positive control, and paclitaxel which is a stabilizing agent of tubulin polymerization was used as a negative control. Tubulin polymerization was determined with 10 µM of the reference drugs and compounds 1a–l for 90 min.
Figure 3 Porcine brain tubulin (final […]) in presence of PB-GTP buffer, 10 µM paclitaxel, 10 µM nocodazole and 10 µM of the assayed compounds. Reaction was conducted in thermostated spectrophotometric chamber at 37 °C for 90 min. Turbidity was measured at 340 nm every 30 s.
The effect of the studied compounds on the polymerization of purified porcine tubulin was monitored using a commercial assay kit (cat. number BK004P), purchased from Cytoskeleton, USA. Stock solutions of porcine brain tubulin solutions (4 mg.mL^−1) were prepared immediately prior to use in general tubulin buffer (80 mM piperazine-N,N′-bis(2-ethanesulfonic acid, PIPES) pH 6.9, 2 mM MgCl2 and 0.5 mM (ethylene glycol-bis(β-aminoethyl ether)-N,N,N′,N′-tetraacetic acid, EGTA) containing 1 mM guanosine triphosphate (GTP) (G-PEM buffer). Stock solutions of Paclitaxel (100 µM), Noconazole (100 µM) or tested samples (100 µM) in G-PEM buffer containing 5% DMSO were prepared.
The standard reaction mixture contains 95 μL of 4 mg.mL^−1 porcine brain tubulin and 5 μL of standards, test samples or G-PEM buffer only (control). Then, the microplate with loaded reaction mixtures was incubated for 90 min. at 37 °C in a thermostated spectrophotometer chamber. The turbidity of the mixtures was measured at 340 nm every 30 s. The experiment was performed on SpectroStar Nano (BMG Labtech, Aylesbury, UK) equipped with software for kinetic measurements.

T1 sequence (P02550 whole entry): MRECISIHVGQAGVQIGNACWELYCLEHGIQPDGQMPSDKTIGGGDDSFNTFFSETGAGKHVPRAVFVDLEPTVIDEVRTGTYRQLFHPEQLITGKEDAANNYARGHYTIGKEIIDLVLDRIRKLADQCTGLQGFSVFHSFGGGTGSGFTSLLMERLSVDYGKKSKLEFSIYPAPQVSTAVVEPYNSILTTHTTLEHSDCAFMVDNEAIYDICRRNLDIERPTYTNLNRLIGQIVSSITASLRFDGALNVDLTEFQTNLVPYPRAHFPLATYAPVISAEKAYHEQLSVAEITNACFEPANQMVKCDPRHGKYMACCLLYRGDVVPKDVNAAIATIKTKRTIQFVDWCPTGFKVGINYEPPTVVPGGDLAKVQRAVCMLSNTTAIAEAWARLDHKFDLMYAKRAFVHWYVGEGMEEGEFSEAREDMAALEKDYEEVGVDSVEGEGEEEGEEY
T1 sequence (P02554 whole entry): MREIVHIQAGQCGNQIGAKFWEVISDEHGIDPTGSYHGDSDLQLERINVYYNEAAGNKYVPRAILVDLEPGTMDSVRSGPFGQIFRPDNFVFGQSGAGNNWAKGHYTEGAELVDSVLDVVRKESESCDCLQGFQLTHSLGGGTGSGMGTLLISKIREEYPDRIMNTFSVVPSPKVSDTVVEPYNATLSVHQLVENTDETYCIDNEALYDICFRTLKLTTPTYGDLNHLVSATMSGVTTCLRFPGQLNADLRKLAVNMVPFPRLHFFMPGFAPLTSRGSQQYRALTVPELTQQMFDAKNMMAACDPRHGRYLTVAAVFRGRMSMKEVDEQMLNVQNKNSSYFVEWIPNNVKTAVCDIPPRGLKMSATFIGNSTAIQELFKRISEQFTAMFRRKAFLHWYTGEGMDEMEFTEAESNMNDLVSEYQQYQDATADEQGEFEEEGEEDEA

On to `Oc1ccc(/C=N/Nc2nc3ccccc3[nH]2)c(O)c1` [Compound 1c], for which the HORAC in assay [1] is 2.69 GAE. Besides, at porcine brain tubulin, the “Initial Rate of the Exponential Phase, Signal Response” value stood at 4.9 a.u.s^−1 × 10^−6 and the “Lag Time” value came to 1190 s.

In the case of `Oc1ccc(/C=N/Nc2nc3ccccc3[nH]2)c(O)c1O` [Compound 1e], in assay [1], the HORAC is given as 2.79 GAE.
